Key:
[1] = test system: peripheral white blood cells of patients; experiment: Real time RT-PCR of gene transcription in patients' peripheral white cells in vivo; parameters: species or system human
Procedure: FIG. 8. Induction of MT3 (A) and AREG (B) transcription in vivo in patients with solid tumor who received treatment with MGCD0103 for one week (three doses per week). At day 8 (72 h after the third dose), peripheral white blood cells were isolated and RNA extracted and analyzed by qRT-PCR
FIG. 12. Induction of transcription of three tumor suppressor genes, BTG1, TNFSF9 and p21 in peripheral white cells from Patient A in vivo as determined by real time RT-PCR. Note that both BTG1 and TNFSF9 were identified in FIG. 11 using microarray expression analysis and their expression is confirmed in vivo by real time RT-PCR.
FIG. 13. Induction of transcription of three tumor suppressor genes, BTG1, TNFSF9 and p21 in peripheral white cells from a MDS patient with clinical response (Patient E) and a MDS patient without response (Patient F) in vivo as determined by real time RT-PCR. Blood samples were drawn 48 hr post the 2nd dose in cycle 1.
(§1) Whole blood from either consenting healthy volunteers or consenting patients was centrifuged at 2500 rpm for 10 minutes at ambient temperature in a Sorvall RT-7 centrifuge (Mandel Scientific Co., Guelph, Ontario). Plasma was removed and buffy coat was collected. Five volumes of Erythrocyte Lysis Buffer (EL) (Qiagen Canada Inc., Mississauga, Ontario) were added into buffy coat. Buffy coat was incubated on ice for 20 minutes before it was centrifuged at 400 g for 10 minutes at 4° C. Supernatant was removed and buffy coat was washed twice with EL buffer and re-centrifuged. Buffy coat was resuspended in RPMI media and cells were counted with trypan blue exclusion. To isolate PBMCs, buffy coat cells were centrifuged over Lymphoprep (Axis-Shield, 1114544), and any remaining erythrocytes in the sample were lysed by treatment with EL lysis buffer (Qiagen, 79217). The cell pellets are washed and then re-suspended in RPMI containing 10% FBS.
Quantitative PCR with SYBR Green I detection with Mastercycler® ep realplex (Eppendorf) was performed using LightCycler® 480 SYBR Green I Master (Roche Diagnostics). SYBR Green I assays were performed with 600 nM primers. All other reaction conditions were as described by the manufacturer. Amplification conditions were 5 minutes of initial denaturation at 95° C., followed by 40 cycles of each 15 seconds at 95° C., 15 seconds at 63.4° C., 20 seconds at 68° C., a melting curve from 60° C. to 95° C. was recorded. Quantification was performed using Pfaffl method, a relative quantification method in real-time PCR (Nucleic Acids Research 2001 29:2002-2007). Primers were synthesized by Invitrogen (Invitrogen-Canada, Burlington, Ont.).
Human patients with either solid tumors or leukemia/MDS diseases were enrolled in phase I studies with consensus forms. […]

[2] = test system: human H460 tumors in mice; experiment: Microarray gene expression analysis, implanted H460 tumors in vivo
Procedure: (§2) Biological analysis was performed using Biointerpreter software.
Human non-small cell lung carcinoma NSCLC-H460 cells (2 million) were injected subcutaneously in the animal flank and allowed to form solid tumors. Tumor fragments were passaged in animals for a minimum of three times before their use. Tumor fragments (about 30 mg) were implanted subcutaneously through a small surgical incision under general anesthesia to Balb/cA female nude mice (6-8 weeks old). Recipient animals were treated with either vehicle (0.1 N HCl) or MGCD0103 (2HBr salt, in 0.1 N HCl) 100 mg/kg orally. Tumors were harvested after one dose of either 6 hour or 24 hours post administration of vehicle or MGCD0103. Each experimental group contained 3 animals. Tumor tissues were deposited in RNAlater (Qiagen, Missisauga Ontario) for total RNA extraction.

HDAC activity = experiment: Fluorescence-based whole cell HDAC enzyme assay in patients' peripheral white blood cells; assay type: in vivo, human
Procedure: At day 8 (72 h after the third dose), peripheral white blood cells were tested for HDAC activity by whole cell assay
as §1
(§3) Human patients with either solid tumors or leukemia/MDS diseases were enrolled in phase I studies with consensus forms. MGCD0103 were dosed into patients orally every other day (day 1, day 3, day 5 […]). Blood samples were withdrawled by using the Vacutainer sodium-heparin blood collection tubes (Becton Dickinson Laboratories, Franklin Lakes, N.J.) and shipped to the test site within 24 hours on ice-pack. Baseline samples were drawn immediately prior to the first drug dose, while the 24 hour samples were drawn at 24 hours post the first drug dose. The 48 hours samples were drawn at 48 hours post the first dose. For the 1 week samples, blood was drawn 72 hours after day 5 dose (3 accumulated doses during week 1).
Freshly trypsinized cells or cells in suspension were dispensed in 96-well black Costar E1A/RIA plates (Corning Inc., Corning, N.Y.). We typically used 5×10^4 to 2×10^5 cells per well, and 8×10^5 white blood (mouse or human) cells/per well. Small molecule substrate Boc-Lys(Ac)-AMC (Bachem Biosciences Inc., King of Prussia, Philadelphia) were added to cell suspension with the final concentration of 300 uM. Cells were placed in a 37° C. incubator with 5% CO2 for 90 minutes (in the case of white blood cells, we incubated for 60 min). Fluorescence was read immediately before adding stop mixture to get a background. […] Fluorescence was developed for 15 minutes at 37° C. and read in a fluorometer (SPECTRAMAX GeminiXS, Molecular Devices, Sunnyvale, Calif.) with an excitation wavelength at 360 nm, emission at 470 nm, and a cutoff of 435 nm.

[3] = test system: peripheral blast cells from AML patients; experiment: Microarray gene expression analysis, AML patients treated with MGCD0103 in vivo; parameters: species or system human; settings: for Fold of Induction of CCL4 transcription / Fold of Induction of CCL7 transcription / Fold of Induction of IFNG transcription / Fold of Induction of THBS1 transcription: AML Patient A (clinical response)
Procedure: as §1, §2, §3

Fold induction of CDKN1C transcription [2]: 3.1 fold
Fold induction of CXCL14 transcription [2]: 3.4 fold
Fold induction of IER3 transcription [2]: 3.2 fold
Fold induction of KRTHA2 transcription [2]: 2.6 fold
Fold induction of MT3 transcription [2]: 2.2 fold
Fold induction of PROM1 transcription [2]: 3.1 fold
Fold induction of SNIP transcription [2]: 2.8 fold
Fold induction of SOD2 transcription [2]: 2.8 fold
Fold induction of TNF transcription [2]: 2.8 fold
Structure (SMILES): Nc1ccccc1NC(=O)c1ccc(CNc2nccc(-c3cccnc3)n2)cc1 [MGCD0103]
Induction of transcription of BTG1, TNFSF9 and p21 ([1]; MDS patient with clinical response (Patient E), 48 hr post 2nd dose in cycle 1 (FIG. 13)): Induction
induction of MT3 transcription in vivo ([1]; patients with solid tumors, one week (three doses per week), day 8, qRT-PCR (FIG. 8A)): induction
induction of AREG transcription in vivo ([1]; patients with solid tumors, one week (three doses per week), day 8, qRT-PCR (FIG. 8B)): induction
Induction of transcription of BTG1, TNFSF9 and p21 ([1]; peripheral white cells, AML Patient A, real time RT-PCR (FIG. 12)): Induction
inhibition of HDAC activity in peripheral white cells (HDAC activity; AML Patient A with clinical response (FIG. 9)): Time-dependent inhibition
HDAC inhibition (HDAC activity; AML patient (Patient A) with clinical response, day 8): 68%
HDAC inhibition in vivo in peripheral white blood cells (HDAC activity; patients with solid tumors, one week (three doses per week), day 8 (FIG. 7)): dose-dependent HDAC inhibition
average HDAC inhibition (HDAC activity; three other AML patients (no response), day 8): < 5%
Fold of Induction of CCL4 transcription ([3]; 24 hr): 1.4 fold
Fold of Induction of CCL7 transcription ([3]; 24 hr): 2.3 fold
Fold of Induction of IFNG transcription ([3]; 24 hr): 1.4 fold
Fold of Induction of THBS1 transcription ([3]; 24 hr): 1.4 fold
Fold of Induction of CCL4 transcription ([3]; day 8): 12.2 fold
Fold of Induction of CCL7 transcription ([3]; day 8): 7.3 fold
Fold of Induction of IFNG transcription ([3]; day 8): 2.5 fold
Fold of Induction of THBS1 transcription ([3]; day 8): 2.8 fold
Induction of transcription of a subset of proapoptotic proteins ([3]; peripheral blast cells, D8 vs 0 h, AML Patient A (response), in contrast to Patients B, C, D (FIG. 11)): Induction
induction of transcription of the Table 5 genes (CCL7, CCL4, IFNG, THBS1) ([3]; three other AML patients without response): <= 1 fold

Source: patent publication US20070292351A1, “Assay for efficacy of histone deacetylase inhibitors” (Methylgene, Inc., priority 2006, published 2007)
